# Tests used:
# EKVX = assay: NCI60 one-dose screen (10 μM), Non-small Cell Lung Cancer; type: cell-based; details: Homo sapiens, 10 μM, Non-small Cell Lung Cancer, read-out: Growth percent rate
# HS 578T = assay: NCI60 one-dose screen (10 μM), Breast Cancer; type: cell-based; details: Homo sapiens; 10 μM; HS 578T, Breast Cancer; read-out: Growth percent rate
# CAKI-1 = assay: NCI60 one-dose screen (10 μM), Renal Cancer; type: cell-based; details: Homo sapiens; 10 μM; CAKI-1, Renal Cancer; read-out: Growth percent rate
# NCI-H322M = assay: NCI60 one-dose screen (10 μM), Non-small Cell Lung Cancer; type: cell-based; details: Homo sapiens, 10 μM, Non-small Cell Lung Cancer, read-out: Growth percent rate
# SF-295 = assay: NCI60 one-dose screen (10 μM), CNS Cancer; type: cell-based; details: Homo sapiens; 10 μM; SF-295, CNS Cancer; read-out: Growth percent rate
# NCI-H23 = assay: NCI60 one-dose screen (10 μM), Non-small Cell Lung Cancer; type: cell-based; details: Homo sapiens; 10 μM; NCI-H23, Non-small Cell Lung Cancer; read-out: Growth percent rate
# HCT-116 = assay: NCI60 one-dose screen (10 μM), Colon Cancer; type: cell-based; details: Homo sapiens; 10 μM; HCT-116, Colon Cancer; read-out: Growth percent rate
# ACHN = assay: NCI60 one-dose screen (10 μM), Renal Cancer; type: cell-based; details: Homo sapiens, 10 μM, Renal Cancer, read-out: Growth percent rate
# HCC-2998 = assay: NCI60 one-dose screen (10 μM), Colon Cancer; type: cell-based; details: Homo sapiens; 10 μM; HCC-2998, Colon Cancer; read-out: Growth percent rate
# HT29 = assay: NCI60 one-dose screen (10 μM), Colon Cancer; type: cell-based; details: Homo sapiens, HT-29; 10 μM; HT29, Colon Cancer; read-out: Growth percent rate
# SF-539 = assay: NCI60 one-dose screen (10 μM), CNS Cancer; type: cell-based, human; details: Homo sapiens; 10 μM; SF-539, CNS Cancer; read-out: Growth percent rate
# 786–0 = assay: NCI60 one-dose screen (10 μM), Renal Cancer; type: cell-based; details: Homo sapiens; 10 μM; 786-0, Renal Cancer; read-out: Growth percent rate
# COLO 205 = assay: NCI60 one-dose screen (10 μM), Colon Cancer; type: cell-based, human; details: Homo sapiens; 10 μM; COLO 205, Colon Cancer; read-out: Growth percent rate
# SK-MEL-5 = assay: NCI60 one-dose screen (10 μM), Melanoma; type: cell-based, human; details: Homo sapiens; 10 μM; SK-MEL-5, Melanoma; read-out: Growth percent rate
# SNB-19 = assay: NCI60 one-dose screen (10 μM), CNS Cancer; type: cell-based; details: Homo sapiens; 10 μM; SNB-19, CNS Cancer; read-out: Growth percent rate
# UACC-257 = assay: NCI60 one-dose screen (10 μM), Melanoma; type: cell-based; details: Homo sapiens; 10 μM; UACC-257, Melanoma; read-out: Growth percent rate
# MDA-MB-435 = assay: NCI60 one-dose screen (10 μM), Melanoma; type: cell-based; details: Homo sapiens; 10 μM; MDA-MB-435, Melanoma; read-out: Growth percent rate
# SW-620 = assay: NCI60 one-dose screen (10 μM), Colon Cancer; type: cell-based; details: Homo sapiens; 10 μM; SW-620, Colon Cancer; read-out: Growth percent rate
# OVCAR-8 = assay: NCI60 one-dose screen (10 μM), Ovarian Cancer; type: cell-based; details: Homo sapiens; 10 μM; OVCAR-8, Ovarian Cancer; read-out: Growth percent rate
# A549/ATCC = assay: NCI60 one-dose screen (10 μM), Non-small Cell Lung Cancer; type: cell-based; details: Homo sapiens; 10 μM; A549/ATCC, Non-small Cell Lung Cancer; read-out: Growth percent rate
# M14 = assay: NCI60 one-dose screen (10 μM), Melanoma; type: cell-based; details: Homo sapiens; 10 μM; M14, Melanoma; read-out: Growth percent rate
# TK-10 = assay: NCI60 one-dose screen (10 μM), Renal Cancer; type: cell-based; details: Homo sapiens; 10 μM; TK-10, Renal Cancer; read-out: Growth percent rate
# U251 = assay: NCI60 one-dose screen (10 μM), CNS Cancer; type: cell-based; details: Homo sapiens, U-251; 10 μM; U251, CNS Cancer; read-out: Growth percent rate
# IGROV1 = assay: NCI60 one-dose screen (10 μM), Ovarian Cancer; type: cell-based; details: Homo sapiens, IGROV-1; 10 μM; IGROV1, Ovarian Cancer; read-out: Growth percent rate
# MOLT-4 = assay: NCI60 one-dose screen (10 μM), Leukemia; type: cell-based, human; details: Homo sapiens; 10 μM; MOLT-4, Leukemia; read-out: Growth percent rate
# SNB-75 = assay: NCI60 one-dose screen (10 μM), CNS Cancer; type: cell-based, human; details: Homo sapiens; 10 μM; SNB-75, CNS Cancer; read-out: Growth percent rate
# OVCAR-3 = assay: NCI60 one-dose screen (10 μM), Ovarian Cancer; type: cell-based; details: Homo sapiens; 10 μM; OVCAR-3, Ovarian Cancer; read-out: Growth percent rate
# MALME-3M = assay: NCI60 one-dose screen (10 μM), Melanoma; type: cell-based; details: Homo sapiens; 10 μM; MALME-3M, Melanoma; read-out: Growth percent rate
# NCI-H460 = assay: NCI60 one-dose screen (10 μM), Non-small Cell Lung Cancer; type: cell-based; details: Homo sapiens; 10 μM; NCI-H460, Non-small Cell Lung Cancer; read-out: Growth percent rate
# HOP-62 = assay: as above; type: cell-based; details: Homo sapiens; 10 μM; HOP-62, Non-small Cell Lung Cancer; read-out: Growth percent rate
# NCI-H522 = assay: as above; type: cell-based; details: Homo sapiens; 10 μM; NCI-H522, Non-small Cell Lung Cancer; read-out: Growth percent rate
# SK-MEL-2 = assay: NCI60 one-dose screen (10 μM), Melanoma; type: cell-based; details: Homo sapiens; 10 μM; SK-MEL-2, Melanoma; read-out: Growth percent rate
# SK-MEL-28 = assay: NCI60 one-dose screen (10 μM), Melanoma; type: cell-based; details: Homo sapiens; 10 μM; SK-MEL-28, Melanoma; read-out: Growth percent rate
# HL-60(TB) = assay: NCI60 one-dose screen (10 μM), Leukemia; type: cell-based; details: Homo sapiens; 10 μM; HL-60(TB), Leukemia; read-out: Growth percent rate
# A498 = assay: NCI60 one-dose screen (10 μM), Renal Cancer; type: cell-based; details: Homo sapiens; 10 μM; A498, Renal Cancer; read-out: Growth percent rate
# HCT-15 = assay: NCI60 one-dose screen (10 μM), Colon Cancer; type: cell-based; details: Homo sapiens; 10 μM; HCT-15, Colon Cancer; read-out: Growth percent rate
# MCF7 = assay: NCI60 one-dose screen (10 μM), Breast Cancer; type: cell-based; details: Homo sapiens; 10 μM; MCF7, Breast Cancer; read-out: Growth percent rate
# SN12C = assay: NCI60 one-dose screen (10 μM), Renal Cancer; type: cell-based; details: Homo sapiens, 10 μM, Renal Cancer, read-out: Growth percent rate
# RPMI-8226 = assay: NCI60 one-dose screen (10 μM), Leukemia; type: cell-based; details: Homo sapiens; 10 μM; RPMI-8226, Leukemia; read-out: Growth percent rate
# CCRF-CEM = assay: NCI60 one-dose screen (10 μM), Leukemia; type: cell-based; details: Homo sapiens, 10 μM, Leukemia, read-out: Growth percent rate
# K-562 = assay: NCI60 one-dose screen (10 μM), Leukemia; type: cell-based; details: Homo sapiens, K562; 10 μM; K-562, Leukemia; read-out: Growth percent rate
# KM12 = assay: NCI60 one-dose screen (10 μM), Colon Cancer; type: cell-based, human; details: Homo sapiens; 10 μM; KM12, Colon Cancer; read-out: Growth percent rate
smiles,measurement,setting,value
CCC12C=CCN3CCC4(c5ccc(OC)cc5N(C)C4C(O)(C(=O)OC)C1OC(=O)CCCN1CCN(C)CC1)C32 (stereo not drawn) [Compound 3],activity at 10 µM,EKVX,96.5%
same,activity at 10 µM,HS 578T,78.6%
same,activity at 10 µM,CAKI-1,54.5%
same,activity at 10 µM,NCI-H322M,96.9%
same,activity at 10 µM,SF-295,96.2%
same,activity at 10 µM,NCI-H23,90%
same,activity at 10 µM,HCT-116,112%
same,activity at 10 µM,ACHN,103%
same,activity at 10 µM,HCC-2998,92.4%
same,activity at 10 µM,HT29,98.8%
same,activity at 10 µM,SF-539,88.1%
same,activity at 10 µM,786–0,106%
same,activity at 10 µM,COLO 205,90%
same,activity at 10 µM,SK-MEL-5,74.5%
same,activity at 10 µM,SNB-19,90.6%
same,activity at 10 µM,UACC-257,90.1%
same,activity at 10 µM,MDA-MB-435,28.9%
same,activity at 10 µM,SW-620,87%
same,activity at 10 µM,OVCAR-8,92.9%
same,activity at 10 µM,A549/ATCC,98.2%
same,activity at 10 µM,M14,103%
same,activity at 10 µM,TK-10,99%
same,activity at 10 µM,U251,89.9%
same,activity at 10 µM,IGROV1,102%
same,activity at 10 µM,MOLT-4,102%
same,activity at 10 µM,SNB-75,85.3%
same,activity at 10 µM,OVCAR-3,78.1%
same,activity at 10 µM,MALME-3M,77.2%
same,activity at 10 µM,NCI-H460,97.7%
same,activity at 10 µM,HOP-62,79.9%
same,activity at 10 µM,NCI-H522,45.9%
same,activity at 10 µM,SK-MEL-2,84.7%
same,activity at 10 µM,SK-MEL-28,85%
same,activity at 10 µM,HL-60(TB),91%
same,activity at 10 µM,A498,83.2%
same,activity at 10 µM,HCT-15,91.3%
same,activity at 10 µM,MCF7,78%
same,activity at 10 µM,SN12C,89.1%
same,activity at 10 µM,RPMI-8226,112%
same,activity at 10 µM,CCRF-CEM,108%
same,activity at 10 µM,K-562,66.9%
same,activity at 10 µM,KM12,85.3%
CC[C@]12C=CCN3CC[C@@]4(c5ccc(OC)cc5N(C)[C@H]4[C@@](O)(C(=O)OC)[C@@H]1OC(=O)CCCN1CCN(C(=O)c4ccco4)CC1)[C@@H]32 [Compound 26],activity at 10 µM,EKVX,87.8%
same,activity at 10 µM,HS 578T,96.1%
same,activity at 10 µM,CAKI-1,79.8%
same,activity at 10 µM,NCI-H322M,108%
same,activity at 10 µM,SF-295,89.5%
same,activity at 10 µM,NCI-H23,109%
same,activity at 10 µM,HCT-116,104%
same,activity at 10 µM,ACHN,103%
same,activity at 10 µM,HCC-2998,106%
same,activity at 10 µM,HT29,103%
same,activity at 10 µM,SF-539,101%
same,activity at 10 µM,786–0,94.2%
same,activity at 10 µM,COLO 205,99.7%
same,activity at 10 µM,SK-MEL-5,75.6%
same,activity at 10 µM,SNB-19,94.4%
same,activity at 10 µM,UACC-257,101%
same,activity at 10 µM,MDA-MB-435,104%
same,activity at 10 µM,SW-620,112%
same,activity at 10 µM,OVCAR-8,104%
same,activity at 10 µM,A549/ATCC,92.7%
same,activity at 10 µM,M14,101%
same,activity at 10 µM,TK-10,104%
same,activity at 10 µM,U251,93.4%
same,activity at 10 µM,IGROV1,109%
same,activity at 10 µM,MOLT-4,77.3%
same,activity at 10 µM,SNB-75,68.3%
same,activity at 10 µM,OVCAR-3,121%
same,activity at 10 µM,MALME-3M,102%
same,activity at 10 µM,NCI-H460,112%
same,activity at 10 µM,HOP-62,107%
same,activity at 10 µM,NCI-H522,91.6%
same,activity at 10 µM,SK-MEL-2,109%
same,activity at 10 µM,SK-MEL-28,105%
same,activity at 10 µM,HL-60(TB),93.8%
same,activity at 10 µM,A498,107%
same,activity at 10 µM,HCT-15,98.8%
same,activity at 10 µM,MCF7,88.7%
same,activity at 10 µM,SN12C,103%
same,activity at 10 µM,RPMI-8226,69.2%
same,activity at 10 µM,CCRF-CEM,103%
same,activity at 10 µM,K-562,76.7%
same,activity at 10 µM,KM12,108%
